US12435091B2, “RNA-binding protein multimerization inhibitors and methods of use thereof” (THE UAB RESEARCH FOUNDATION, priority 2020, dated 2025)

Assays:
[1] = Log D at pH 7.4; type: physicochemical
Experimental: Selected compounds were assessed for their aqueous solubility, Log D and mouse and human liver microsomal stability.

[2] = tested on: XD456 neurospheres, HuR mRNA targets; assay: Illumina global RNA-sequencing of PDGx neurospheres; type: cell-based; conditions: 3 uM, 12 hours, compared to control
Experimental: (§1) Illumina global RNA-sequencing data were generated by utilizing PDGx neurospheres, which have been treated with a compound as described herein (e.g., SRI-42127, 3 uM) for 12 hours or with vehicle as the control. RNA was isolated by using TRIzol reagent (Invitrogen; Carlsbad, CA). The RNA samples were processed.
(§2) RNA sequencing was performed on PDGx-derived glioma neurospheres representing the different molecular subtypes (classical, neuronal, and mesenchymal) after treatment with vehicle (control) or SRI-42127 (3 uM) for 12 hours. Analysis of direct HuR mRNA targets and their corresponding cell signaling pathways was performed. Table 9 illustrates the evaluated gene sets, representing direct HuR mRNA targets, and their corresponding cell signaling pathways.
(§3) The analysis of direct HuR mRNA targets and their corresponding cell signaling pathways has been performed by using gene sets, which have been defined as the direct HuR targets following tumor neurosphere treatment with DHTS, an established modulator of HuR/mRNA interaction (Lal et al., Nucleic Acid Research, 2017). […] Data are represented as average+standard deviation (Aver+SD). The significance was evaluated by using Student t-test.
(§4) The analysis was generated based on RNA-Seq data.

[3] = tested on: JX22p neurospheres, HuR mRNA targets; assay: as above; type: cell-based; conditions: 3 uM, 12 hours, compared to control
Experimental: as §1, §2, §3, §4

[4] = tested on: JX12p neurospheres, HuR mRNA targets; assay: as above; type: cell-based; conditions: 3 uM, 12 hours, compared to control
Experimental: as §1, §2, §3, §4

[5] = tested on: PDGx neurosphere cell lines (JX12p, X14P, XD456, X1524, and JX22p); assay: RNA-Seq analysis and gene ontology enrichment across all PDGx neurosphere cell lines; type: cell-based; conditions: 3 uM for 12 hours, in four of five neurosphere cell lines
Experimental: as §1
The RNA-Sequencing data was generated using glioma neurospheres representing the different molecular subtypes (classical, neuronal, and mesenchymal) in the control (treatment with vehicle) and after treatment with SRI-42127, 3 uM for 12 hours. First, analysis of direct HuR mRNA targets and their corresponding cell signaling pathways was performed by using gene sets, which have been defined as the direct HuR targets following tumor neurosphere treatment with DHTS compound, an established modulator of the HuR/mRNA interaction.
Significant down-regulation of the pathways responsible for i) cell cycle progression, ii) DNA replication, iii) transport mature transcript to cytoplasm, iv) DNA strand elongation, v) capped intron-containing pre-mRNA processing, vi) DNA repair, vii) unwinding of DNA, viii) alpha-linolenic (omega 3) and linoleic (omega 6) metabolism, ix) chromosome maintenance, x) messenger RNA splicing was observed. It is established that HuR can control the centrosome and microtubule organizing center in cancer cells. […]

CN(c1ccc2ncc(-c3ccc4cn[nH]c4c3)n2n1)C1CCOCC1 [Compound 19]
logD [1]: 3.1 | gene set average value, Activation of BH3-only proteins Homo sapiens_R-HSA-114452 [2]: 0.94 | gene set average value, Cell Cycle Check points_Homo Sapiens_R-HSA-69620 [2]: 0.48 | gene set average value, Cell Cycle, Mitotic_Homo Sapiens_R-HSA-69278 [2]: 0.54 | gene set average value, Cell Cycle_Homo sapiens_R-HSA-1640170 [2]: 0.52 | gene set average value, Cell cycle_Homo Sapiens_hsa04110 [2]: 0.60 | gene set average value, Cellular Senescence_Homo sapiens_R-HSA-2559583 [2]: 0.64 | gene set average value, Cellular responses to Stress_Homo sapiens_R-HSA-2262752 [2]: 0.53 | gene set average value, Deadenylation-dependent mRNA decay_Homo sapiens_R-HSA-429914 [2]: 0.58 | gene set average value, Developmental Biology_Homo sapiens_R-HSA-1266738 [2]: 0.49 | gene set average value, Epstein-Barr virus Infection_Homo Sapiens_hsa05169 [2]: 0.49 | gene set average value, G2/M Check points_Homo sapiens_R-HSA-69481 [2]: 0.47 | gene set average value, G2/M DNA damage Checkpoint_Homo sapiens_R-HSA-69473 [2]: 0.50 | gene set average value, Gene Expression_Homo Sapiens_R-HSA-2559583 [2]: 0.63 | gene set average value, HTLV-1 infection_Homo Sapiens_hsa05186 [2]: 0.61 | gene set average value, Intrinsic Pathway for Apoptosis_Homo sapiens_R-HSA-109606 [2]: 0.94 | gene set average value, MAPK signaling Pathway_Homo Sapiens_hsa04010 [2]: 0.54 | gene set average value, Membrane Trafficking_Homo sapiens_R-HAS-199991 [2]: 0.53 | gene set average value, Mitotic G1-G1/S phases_Homo sapiens_R-HSA-453279 [2]: 0.61 | gene set average value, P53 signaling pathway_Homo Sapiens_hsa04115 [2]: 1.19 | gene set average value, RHO GTPases Activate Formins_Homo sapiens_R-HSA-5663220 [2]: 0.48 | gene set average value, RHO GTPases Effectors_Homo sapiens_R-HSA-195258 [2]: 0.50 | gene set average value, RNA degradation_Homo Sapiens_hsa03018 [2]: 0.65 | gene set average value, Regulation of TP53 Activity through Phosphorylation_Homo sapiens_R-HSA-6804756 [2]: 0.35 | gene set average value, Regulation of TP53 Activity_Homo sapiens_ [2]: 0.44 | gene set average value, Signaling by Rho GTPases_Homo sapiens_R-HSA-194315 [2]: 0.45 | gene set average value, TP53 Regulates Metabolic Genes_Homo sapiens_R-HSA-5628897 [2]: 0.54 | gene set average value, Transcriptional Regulation by TP53_Homo sapiens_R-HSA-3700989 [2]: 0.64 | gene set average value, Translocation of GLUT4 to the plasma membrane_Homo sapiens_R-HSA-1445148 [2]: 0.53 | gene set average value, Activation of BH3-only proteins Homo sapiens_R-HSA-114452 [3]: 0.42 | gene set average value, Cell Cycle Check points_Homo Sapiens_R-HSA-69620 [3]: 0.35 | gene set average value, Cell Cycle, Mitotic_Homo Sapiens_R-HSA-69278 [3]: 0.32 | gene set average value, Cell Cycle_Homo sapiens_R-HSA-1640170 [3]: 0.36 | gene set average value, Cell cycle_Homo Sapiens_hsa04110 [3]: 0.37 | gene set average value, Cellular Senescence_Homo sapiens_R-HSA-2559583 [3]: 0.28 | gene set average value, Cellular responses to Stress_Homo sapiens_R-HSA-2262752 [3]: 0.27 | gene set average value, Deadenylation-dependent mRNA decay_Homo sapiens_R-HSA-429914 [3]: 0.31 | gene set average value, Developmental Biology_Homo sapiens_R-HSA-1266738 [3]: 0.32 | gene set average value, Epstein-Barr virus Infection_Homo Sapiens_hsa05169 [3]: 0.43 | gene set average value, G2/M Check points_Homo sapiens_R-HSA-69481 [3]: 0.39 | gene set average value, G2/M DNA damage Checkpoint_Homo sapiens_R-HSA-69473 [3]: 0.39 | gene set average value, Gene Expression_Homo Sapiens_R-HSA-2559583 [3]: 0.37 | gene set average value, HTLV-1 infection_Homo Sapiens_hsa05186 [3]: 0.47 | gene set average value, Intrinsic Pathway for Apoptosis_Homo sapiens_R-HSA-109606 [3]: 0.42 | gene set average value, MAPK signaling Pathway_Homo Sapiens_hsa04010 [3]: 0.31 | gene set average value, Membrane Trafficking_Homo sapiens_R-HAS-199991 [3]: 0.28 | gene set average value, Mitotic G1-G1/S phases_Homo sapiens_R-HSA-453279 [3]: 0.36 | gene set average value, P53 signaling pathway_Homo Sapiens_hsa04115 [3]: 0.24 | gene set average value, RHO GTPases Activate Formins_Homo sapiens_R-HSA-5663220 [3]: 0.26 | gene set average value, RHO GTPases Effectors_Homo sapiens_R-HSA-195258 [3]: 0.30 | gene set average value, RNA degradation_Homo Sapiens_hsa03018 [3]: 0.35 | gene set average value, Regulation of TP53 Activity through Phosphorylation_Homo sapiens_R-HSA-6804756 [3]: 0.34 | gene set average value, Regulation of TP53 Activity_Homo sapiens_R-HSA-109606 [3]: 0.31 | gene set average value, Signaling by Rho GTPases_Homo sapiens_R-HSA-194315 [3]: 0.30 | gene set average value, TP53 Regulates Metabolic Genes_Homo sapiens_R-HSA-5628897 [3]: 0.30 | gene set average value, Transcriptional Regulation by TP53_Homo sapiens_R-HSA-3700989 [3]: 0.31 | gene set average value, Translocation of GLUT4 to the plasma membrane_Homo sapiens_R-HSA-1445148 [3]: 0.40 | gene set average value, Activation of BH3-only proteins Homo sapiens_R-HSA-114452 [4]: 0.90 | gene set average value, Cell Cycle Check points_Homo Sapiens_R-HSA-69620 [4]: 0.58 | gene set average value, Cell Cycle, Mitotic_Homo Sapiens_R-HSA-69278 [4]: 0.58 | gene set average value, Cell Cycle_Homo sapiens_R-HSA-1640170 [4]: 0.57 | gene set average value, Cell cycle_Homo Sapiens_hsa04110 [4]: 0.64 | gene set average value, Cellular Senescence_Homo sapiens_R-HSA-2559583 [4]: 0.74 | gene set average value, Cellular responses to Stress_Homo sapiens_R-HSA-2262752 [4]: 0.61 | gene set average value, Deadenylation-dependent mRNA decay_Homo sapiens_R-HSA-429914 [4]: 0.71 | gene set average value, Developmental Biology_Homo sapiens_R-HSA-1266738 [4]: 0.52 | gene set average value, Epstein-Barr virus Infection_Homo Sapiens_hsa05169 [4]: 0.63 | gene set average value, G2/M Check points_Homo sapiens_R-HSA-69481 [4]: 0.60 | gene set average value, G2/M DNA damage Checkpoint_Homo sapiens_R-HSA-69473 [4]: 0.61 | gene set average value, Gene Expression_Homo Sapiens_R-HSA-2559583 [4]: 0.78 | gene set average value, HTLV-1 infection_Homo Sapiens_hsa05186 [4]: 0.67 | gene set average value, Intrinsic Pathway for Apoptosis_Homo sapiens_R-HSA-109606 [4]: 0.90 | gene set average value, MAPK signaling Pathway_Homo Sapiens_hsa04010 [4]: 0.63 | gene set average value, Membrane Trafficking_Homo sapiens_R-HAS-199991 [4]: 0.62 | gene set average value, Mitotic G1-G1/S phases_Homo sapiens_R-HSA-453279 [4]: 0.58 | gene set average value, P53 signaling pathway_Homo Sapiens_hsa04115 [4]: 1.21 | gene set average value, RHO GTPases Activate Formins_Homo sapiens_R-HSA-5663220 [4]: 0.48 | gene set average value, RHO GTPases Effectors_Homo sapiens_R-HSA-195258 [4]: 0.50 | gene set average value, RNA degradation_Homo Sapiens_hsa03018 [4]: 0.78 | gene set average value, Regulation of TP53 Activity through Phosphorylation_Homo sapiens_R-HSA-6804756 [4]: 0.63 | gene set average value, Regulation of TP53 Activity_Homo sapiens_R-HSA-109606 [4]: 0.89 | gene set average value, Signaling by Rho GTPases_Homo sapiens_R-HSA-194315 [4]: 0.49 | gene set average value, TP53 Regulates Metabolic Genes_Homo sapiens_R-HSA-5628897 [4]: 0.87 | gene set average value, Transcriptional Regulation by TP53_Homo sapiens_R-HSA-3700989 [4]: 0.93 | gene set average value, Translocation of GLUT4 to the plasma membrane_Homo sapiens_R-HSA-1445148 [4]: 0.71 | up-regulation of Tubb2A transcript [5]: more than 2 folds
